Test results as given in patent US9890149B2 (NuBridge BioSciences, priority 2015, dated 2018).

Molecular target: T1, ΔF508 mutant CFTR (Homo sapiens, UniProt P13569, DEL508-508)
T1 construct: expressed in transfected cells; host or cells: Fischer rat thyroid (FRT) cells
Assay: Fluorescence Assay (halide-sensitive YFP, iodide influx) for ΔF508 mutant CFTR activity
Type: cell-based
Conditions: FRT cells expressing ΔF508-CFTR and YFP-H148Q/I152L, incubated 27° C. 20-24 h; forskolin (20 μM) and test compounds (20 μM) for 20 min; rate of fluorescence quenching by I−, normalized to forskolin alone
Text: The ΔF508 mutant CFTR activities of the CFTR modulators are detected using the Fluorescence Assay developed by Pedemonte (Pedemonte N., et al., Antihypertensive 1,4-dihydropyridines as correctors of the cystic fibrosis transmembrane conductance regulator channel gating defect caused by cystic fibrosis mutations, Mol. Pharmacol., 2005, 68, 1736-1746).
Fischer rat thyroid (FRT) cells, stably transfected with ΔF508 were retransfected with the YFP-H148Q/I152L fluorescent protein. The cells were plated (100,000 cells/well) on black 96-well microplates with clear plastic bottom (Corning Life Sciences, Acton, Mass.).
The 96-well microplates containing FRT cells expressing F508-CFTR and the halide-sensitive YFP were incubated at 27° C. for 20 to 24 h to allow rescue of the mutant protein to the plasma membrane. After incubation, cells were washed with PBS (containing 137 mM NaCl, 2.7 mM KCl, 8.1 mM Na2HPO4, 1.5 mM KH2PO4, 1 mM CaCl2, and 0.5 mM MgCl2) and stimulated for 20 min with forskolin (20 μM) and test compounds (20 μM) in a final volume of […] Microplates were then transferred to a microplate reader for CFTR activity determination.

T1 sequence (P13569 with tags, fused parts or gaps DEL508-508): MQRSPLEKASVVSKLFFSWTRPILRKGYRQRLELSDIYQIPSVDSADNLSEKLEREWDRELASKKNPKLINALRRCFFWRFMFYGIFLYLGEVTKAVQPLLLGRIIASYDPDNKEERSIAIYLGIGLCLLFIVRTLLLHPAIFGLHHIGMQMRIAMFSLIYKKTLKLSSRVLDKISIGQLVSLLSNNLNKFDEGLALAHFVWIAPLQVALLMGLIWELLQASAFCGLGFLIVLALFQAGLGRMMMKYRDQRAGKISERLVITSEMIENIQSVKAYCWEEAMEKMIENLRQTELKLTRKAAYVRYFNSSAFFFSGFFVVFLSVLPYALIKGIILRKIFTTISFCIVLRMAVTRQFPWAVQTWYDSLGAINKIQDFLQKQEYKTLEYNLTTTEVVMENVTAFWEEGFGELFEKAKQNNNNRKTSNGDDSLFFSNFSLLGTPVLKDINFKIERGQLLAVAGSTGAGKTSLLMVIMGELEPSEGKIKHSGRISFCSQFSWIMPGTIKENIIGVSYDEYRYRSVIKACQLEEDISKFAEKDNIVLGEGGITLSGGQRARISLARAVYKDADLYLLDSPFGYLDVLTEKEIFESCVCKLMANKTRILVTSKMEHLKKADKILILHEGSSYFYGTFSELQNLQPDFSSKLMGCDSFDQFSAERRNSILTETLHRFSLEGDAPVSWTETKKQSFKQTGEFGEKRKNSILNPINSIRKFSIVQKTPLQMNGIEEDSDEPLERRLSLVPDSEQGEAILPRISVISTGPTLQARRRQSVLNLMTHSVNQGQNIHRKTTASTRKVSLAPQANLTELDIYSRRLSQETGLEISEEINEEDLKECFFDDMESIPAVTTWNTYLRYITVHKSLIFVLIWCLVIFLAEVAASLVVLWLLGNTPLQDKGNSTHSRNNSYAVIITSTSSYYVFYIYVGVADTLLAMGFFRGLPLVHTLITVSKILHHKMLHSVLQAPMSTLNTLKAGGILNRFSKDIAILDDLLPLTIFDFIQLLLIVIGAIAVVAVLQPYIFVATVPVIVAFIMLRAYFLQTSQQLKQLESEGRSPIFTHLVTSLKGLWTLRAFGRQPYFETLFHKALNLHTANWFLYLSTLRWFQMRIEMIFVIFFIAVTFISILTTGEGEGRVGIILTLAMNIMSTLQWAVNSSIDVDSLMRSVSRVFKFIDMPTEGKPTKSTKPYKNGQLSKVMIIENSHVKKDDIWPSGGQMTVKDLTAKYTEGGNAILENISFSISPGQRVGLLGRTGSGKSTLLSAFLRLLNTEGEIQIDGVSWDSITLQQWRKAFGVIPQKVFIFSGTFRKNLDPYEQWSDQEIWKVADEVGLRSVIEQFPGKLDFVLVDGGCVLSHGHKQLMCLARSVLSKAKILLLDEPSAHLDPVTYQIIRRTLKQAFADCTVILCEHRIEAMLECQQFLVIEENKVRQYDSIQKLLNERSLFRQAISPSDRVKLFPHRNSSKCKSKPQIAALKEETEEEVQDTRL

CFTR Activity	SMILES
2	Cl.NCC(CO)COc1sncc1NC(=O)c1ccc(C(F)(F)F)c(-c2c(F)cccc2F)n1 (centres unmarked) [Example 58, N-(5-(3-amino-2-(hydroxymethyl)propoxy)isothiazol-4-yl)-6-(2,6-difluorophenyl)-5-(trifluoromethyl)picolinamide hydrochloride]
0.1	Cl.NC1CCCC(Oc2sncc2NC(=O)c2ccc(C(F)(F)F)c(-c3c(F)cccc3F)n2)C1 (centres unmarked) [Example 60, N-(5-((3-aminocyclohexyl)oxy)isothiazol-4-yl)-6-(2,6-difluorophenyl)-5-(trifluoromethyl)picolinamide hydrochloride]
0.4	Cl.Nc1cc(C(F)(F)F)c(-c2c(F)cccc2F)nc1C(=O)Nc1cnsc1OC1CCCC(N)C1 (centres unmarked) [Example 61, 3-amino-N-(5-((3-aminocyclohexyl)oxy)isothiazol-4-yl)-6-(2,6-difluorophenyl)-5-(trifluoromethyl)picolinamide hydrochloride]

Second part, the compound before the results:

SMILES	CFTR Activity
Cl.NCC(CO)COc1sncc1NC(=O)c1nc(-c2c(F)cccc2F)c(F)cc1N (centres unmarked) [Example 57, 3-amino-N-(5-(3-amino-2-(hydroxymethyl)propoxy)isothiazol-4-yl)-6-(2,6-difluorophenyl)-5-fluoropicolinamide hydrochloride]	1.8
Cl.NCC(CO)COc1sncc1NC(=O)c1nc(-c2c(F)cccc2F)c(C(F)(F)F)cc1N (centres unmarked) [Example 59, 3-amino-N-(5-(3-amino-2-(hydroxymethyl)propoxy)isothiazol-4-yl)-6-(2,6-difluorophenyl)-5-(trifluoromethyl)picolinamide hydrochloride]	2.3
